Experiments:
[1] = Plasma octreotide level one hour after intravenous administration (radioimmunoassay); assay type: in vivo, human; conditions: 50 μg octreotide IV bolus, 13 patients with cirrhosis and portal hypertension
Text: Furthermore, we also studied the relationship between the mag- nitude and duration of response of octreotide on corrected wedged hepatic venous pressure (WHVP) and the circulatinglevels ofthe analogue after intravenous administration. Subcutaneous Administration of Octreotide Six patients (4 males and 2 females), receiving 50tg octreotide s.c. twice daily to prevent recurrent varieceal hemorrhage were studied 4 weeks after commencing treatment with the analogue. These patients were participating in a randomised controlled trial and had already undergone a baseline measurement of corrected wedged hepatic venous pressure (WHVP) prior to being commenced on octreotide (50 tg.sc.bd). […] One patient had severe (Child's C), 2 moderate (Child's B) and 3 mild (Child's A) liver dys- function. Following an overnight fast, blood samples were removed immediately prior to a subcutaneous injection of 50tg octreotide and then at 2 hourly intervals for the following 12 h. The blood samples were collected in hepari- nised bottles containing Trasylol, centrifuged at 0C, the plasma snap frozen and stored at -20C for subsequent analysis of the octreo- tide levels. […] Thirteen patient with cirrhosis and portal hy- pertension admitted for a thorough investigation of the etiology and severity of their liver disease underwent measurements of their corrected wedged hepatic venous pressure (WHVP). […]

[2] = normal healthy volunteers; cited from earlier work
[3] = Pharmacokinetics of octreotide after subcutaneous injection (plasma radioimmunoassay); conditions: for AUC: AUC 2-12 h; for Cmax: 50 μg, Plasma octreotide levels, Peak;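 for all read-outs here: cirrhotic patients on twice-daily subcutaneous dosing for prevention of recurrent variceal bleeding, sampled four weeks into treatment, octreotide measured in plasma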
Text: Furthermore, we also studied the relationship between the mag- nitude and duration of response of octreotide on corrected wedged hepatic venous pressure (WHVP) and the circulatinglevels ofthe analogue after intravenous administration. Subcutaneous Administration of Octreotide Six patients (4 males and 2 females), receiving 50tg octreotide s.c. twice daily to prevent recurrent varieceal hemorrhage were studied 4 weeks after commencing treatment with the analogue. These patients were participating in a randomised controlled trial and had already undergone a baseline measurement of corrected wedged hepatic venous pressure (WHVP) prior to being commenced on octreotide (50 tg.sc.bd). […] One patient had severe (Child's C), 2 moderate (Child's B) and 3 mild (Child's A) liver dys- function. Following an overnight fast, blood samples were removed immediately prior to a subcutaneous injection of 50tg octreotide and then at 2 hourly intervals for the following 12 h. The blood samples were collected in hepari- nised bottles containing Trasylol, centrifuged at 0C, the plasma snap frozen and stored at -20C for subsequent analysis of the octreo- tide levels. […] Thirteen patient with cirrhosis and portal hy- pertension admitted for a thorough investigation of the etiology and severity of their liver disease underwent measurements of their corrected wedged hepatic venous pressure (WHVP). […] A 7F occlusion ballon Sidewinder catheter (Cordis Corporation, Miami, USA) was guided into a hepatic vein under fluoroscopic control. […] The right femoral artery was cannu- lated with a 7F Cordis cannula via a 8F Cordis introducer.

[4] = Patient 1, Child's grade A, 50 μg s.c.
[5] = Patient 2, Child's grade A, 50 μg s.c.
[6] = Patient 3, Child's grade A, 50 μg s.c.
[7] = Patient 4, Child's grade B, 50 μg s.c.
[8] = Patient 5, Child's grade B, 50 μg s.c.
[9] = Patient 6, Child's grade C, 50 μg s.c.

**Q.** Which results are given for `C[C@@H](O)[C@@H]1NC(=O)[C@H](CCCCN)NC(=O)[C@@H](Cc2c[nH]c3ccccc23)NC(=O)[C@H](Cc2ccccc2)NC(=O)[C@@H](NC(=O)[C@H](N)Cc2ccccc2)CSSC[C@@H](C(=O)N[C@H](CO)[C@@H](C)O)NC1=O` [octreotide]?
**A.** plasma octreotide level 1 h after administration [1]: 1944 pg/mL; level at 1 h ([1]; human, plasma, 50 ug): 1.94 ± 0.226 ng/mL; hepatic excretion [2]: 30-40%; clearance, overall ([3]; 50 μg s.c., six patients, mean ± SD): 3.04 L/h; Clearance [3, 4]: 4.775 L/h; K [3, 4]: 0.271 h⁻¹; Volume of distribution [3, 4]: 17.62 L; Clearance [3, 5]: 2.892 L/h; K [3, 5]: 0.251 h⁻¹; Volume of distribution [3, 5]: 11.51 L; Clearance [3, 6]: 3.021 L/h; K [3, 6]: 0.288 h⁻¹; Volume of distribution [3, 6]: 10.47 L; Clearance [3, 7]: 2.765 L/h; K [3, 7]: 0.172 h⁻¹; Volume of distribution [3, 7]: 16.07 L; Clearance [3, 8]: 2.704 L/h; K [3, 8]: 0.172 h⁻¹; Volume of distribution [3, 8]: 15.77 L; Clearance [3, 9]: 2.101 L/h; K [3, 9]: 0.142 h⁻¹; Volume of distribution [3, 9]: 14.82 L; Tmax ([3]; both, human, plasma, sc, 50 ug): 2 h; half-life ([3]; both, human, plasma, sc, 50 ug, circulating (plasma) half life, range, 50 μg octreotide s.c., range over 6 patients with cirrhosis and portal hypertension): 2.4 to 4.79 h; half-life ([3]; both, human, plasma, sc, 50 ug, plasma half-life, overall, 50 μg s.c., six patients, mean ± SD): 3.44 h; AUC ([3]; human, plasma, sc, 50 ug, Patient 1, Child's grade A, 50 μg s.c.): 10.5 ng·h/mL; AUC ([3]; human, plasma, sc, 50 ug, Patient 2, Child's grade A, 50 μg s.c.): 17.2 ng·h/mL; AUC ([3]; human, plasma, sc, 50 ug, Patient 3, Child's grade A, 50 μg s.c.): 16.6 ng·h/mL; AUC ([3]; human, plasma, sc, 50 ug, Patient 4, Child's grade B, 50 μg s.c.): 18.1 ng·h/mL; AUC ([3]; human, plasma, sc, 50 ug, Patient 5, Child's grade B, 50 μg s.c.): 18.5 ng·h/mL; AUC ([3]; human, plasma, sc, 50 ug, Patient 6, Child's grade C, 50 μg s.c.): 23.8 ng·h/mL; Cmax ([3]; human, plasma, sc, Patient 1, Child's grade A, 50 μg s.c.): 2.59 ng/mL; Cmax ([3]; human, plasma, sc, Patient 2, Child's grade A, 50 μg s.c.): 2.2 ng/mL; Cmax ([3]; human, plasma, sc, Patient 3, Child's grade A, 50 μg s.c.): 2.09 ng/mL; Cmax ([3]; human, plasma, sc, Patient 4, Child's grade B, 50 μg s.c.): 2.94 ng/mL; Cmax ([3]; human, plasma, sc, Patient 5, Child's grade B, 50 μg s.c.): 3.28 ng/mL; Cmax ([3]; human, plasma, sc, Patient 6, Child's grade C, 50 μg s.c.): 3.51 ng/mL; half-life ([3]; human, plasma, sc, 50 ug, t1/2, Patient 1, Child's grade A, 50 μg s.c.): 2.4 h; half-life ([3]; human, plasma, sc, 50 ug, t1/2, Patient 2, Child's grade A, 50 μg s.c.): 2.76 h; half-life ([3]; human, plasma, sc, 50 ug, t1/2, Patient 3, Child's grade A, 50 μg s.c.): 2.56 h; half-life ([3]; human, plasma, sc, 50 ug, t1/2, Patient 4, Child's grade B, 50 μg s.c.): 4.03 h; half-life ([3]; human, plasma, sc, 50 ug, t1/2, Patient 5, Child's grade B, 50 μg s.c.): 4.04 h; half-life ([3]; human, plasma, sc, 50 ug, t1/2, Patient 6, Child's grade C, 50 μg s.c.): 4.89 h
